Results as given in patent publication US7399756B2, “Organo-phosphorous compounds for activating gamma/delta T cells” (Bioagency AG, priority 2001, dated 2008).

Tested on: V gamma 9+ T-cells (gamma/delta T-cells)
Assay: Activation of gamma/delta T-cells: CD25 expression on V gamma 9+ T-cells of peripheral blood lymphocytes, flow cytometry
Type: cell-based, human
Settings: peripheral blood lymphocytes of healthy donors, 72 hours incubation with IL-2, CD25 activation marker; IPP positive control 10 μM
Method: Lymphocytes were obtained from the peripheral blood of healthy donors by Ficoll density gradient centrifugation. For each test, 2×10^5 of the cells so obtained were seeded in a volume of 0.2 ml of RPMI-1640 medium (Life Technologies) that was enriched with 25 mM HEPES, 2 mM L-glutamine, 0.025 mg/ml of gentamicin, 100 U/ml of human interleukin-2 (IL-2) (all from Life Technologies) and 10% human AB serum (Bavarian Red Cross). The test fractions were added in various dilutions, and isopentenyl diphosphate (IPP) from Sigma was used in a final concentration of 10 μM as a positive control. Incubation was effected in the incubator with 5% CO2 at 37° C. After 72 hours the cells were harvested and analysed in a flow cytometer. In so doing, the expression of the CD25 activation marker on the surface of V gamma 9^+ T-cells was measured with the aid of the monoclonal antibodies CD25-PE (B1.49.9), V gamma 9-FITC (lmmu360) and CD3-PC5 (UCHT1) supplied by Beckman-Coulter.
Lymphocytes were obtained from the peripheral blood of healthy donors by Ficoll density gradient centrifugation. […] After 72 hours the cells were harvested and analysed in a flow cytometer. In so doing, the expression of the CD25 activation marker on the surface of V gamma 9^+ T-cells was measured with the aid of the monoclonal antibodies CD25-PE (B1.49.9), V gamma 9-FITC (Immu360) and CD3-PC5 (UCHT1) supplied by Beckman-Coulter.

Row | SMILES | activity relative to IPP (times more active than IPP)
1 | CC(=CCCP(=O)([O-])OP(=O)([O-])[O-])CO.[Na+].[Na+].[Na+] [compound 15] | about 500 times
2 | CC(=CCCP(=O)([O-])CP(=O)([O-])[O-])CO.[Na+].[Na+].[Na+] [compound 19] | about 500 times
